77 molecules from PubChem BioAssay AID462 (Columbia University Molecular Screening Center, 2006) can be followed below.

The structures appear in SMILES notation. Calls of active or inactive are those of the source.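 Rule for the calls: active = activity score of at least 10, based on curve potency, or else summed standardized inhibition across doses; inactive = the rest.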

Test system in the first test: not listed separately
Kind of test: blockers of TNFa-triggered NFkappaB nuclear entry – imaging, HUVEC, TNFalpha stimulation, p65 immunofluorescence, confirmation (AID 462). The conditions noted are these: HUVEC TNFa-induced p65 nuclear translocation, imaging; at 8 µM (top of the series).
The term inhibition denotes the change of the read-out against control, counted positive when it falls. With `CCOC(=O)c1cc2c(=O)n3cccc(C)c3nc2n(CCc2ccccc2)c1=N`, the inhibition is 17.3% (inactive). Same read-out and setting: in the case of `COc1ccc(CNC(=O)COC(=O)c2n[nH]c3ccccc23)cc1OC` it was -3.8% (inactive); in that of `COc1ccc(CC(=O)Nc2ccc(OC)c(NC(=O)c3ccco3)c2)cc1`, -6.4% (inactive). The same measure, in the same setting: in the case of `O=C(Nc1ccc2oc(-c3ccncc3)nc2c1)c1cccs1` it was 0.6% (inactive). `CCn1c(C(C#N)/C(=N\S(=O)(=O)c2cccs2)c2ccccc2)nc2ccccc21` (configuration not stated): the inhibition is -1.6% (inactive). With `Cc1cccc(N2CN=c3s/c(=C\c4ccncc4)c(=O)n3C2)c1`, the inhibition is -7.5% (inactive). The same measure, in the same setting: in the case of `COc1ccc(N2CCN(CCCNC(=O)C3CCCN(S(=O)(=O)c4cnc[nH]4)C3)CC2)cc1` (configuration not stated) it was 3.2% (inactive); in that of `Cc1cc(C(C)(C)C)c(O)c(C)c1CC1=NCCN1`, 7.9% (inactive). Still for that read-out and setting: in the case of `Cc1nc(N)[nH]c(=O)c1CCC(=O)OCC(C)C` it was 0% (inactive); in that of `CCOc1ccccc1C(=O)N1CCN(c2cccc(Cl)c2)CC1`, 18.5% (inactive).

Consider `COc1cc(C)nc(OCCNC(=O)COc2ccc(Cl)cc2C)n1`, for which the inhibition was 0.4% (inactive). With `CC1=CC2=C(OC1N(C)C)c1cccc3cccc(c13)C2=O` (configuration not stated), the inhibition was 5.4% (inactive). `Nn1c(SCC(=O)Nc2ccc(F)cc2)nnc1-c1cccnc1`: the inhibition was -0.4% (inactive). With `O=C1[C@@H]2C(c3ccccc3Cl)=NO[C@@H]2C(=O)N1Cc1ccccc1`, the inhibition is 0% (inactive). The same measure, in the same setting: in the case of `CC(C)OC(=O)CSc1nnc(Cc2ccccc2)n1Cc1ccco1` it was -1.5% (inactive); in that of `O=C(C1CCC(N2C(=O)C3CC=CCC3C2=O)CC1)N1CCCCC1` (configuration not stated), -2.3% (inactive). On the same count and under the same terms, in the case of `N#Cc1c(N)n(CCOC(=O)c2ccc(Cl)cc2)c2nc3ccccc3nc12` it was 6.7% (inactive); in that of `COc1ccc(/C(O)=C2/C(=O)C(=O)N(Cc3ccco3)C2c2cccs2)cc1` (configuration not stated), 4.7% (inactive); in that of `COc1ccc(-c2nc3c(c(SCC(=O)N4CCOCC4)n2)COC(C)(C)C3)cc1`, 1.1% (inactive). Regarding `COc1ccc(OC)c(NS(=O)(=O)c2ccc(N3CCCC3=O)cc2)c1`, the inhibition is 15.5% (inactive).

As to `CCOc1cc(C2C(C#N)=C(N)Oc3n[nH]c(CC)c32)ccc1OCCN1CCOCC1` (configuration not stated), the inhibition was -2.3% (inactive). Still for that read-out and setting: as for `COc1ccccc1CNC(=O)C1CCCN(S(=O)(=O)c2cnc[nH]2)C1` (configuration not stated), the figure is -1.1% (inactive); as for `CCC(NC(=O)Nc1nnc(C(F)(F)F)s1)(C(F)(F)F)C(F)(F)F`, -22.3% (inactive). The same measure, in the same setting: as for `O=C(COc1ccc2ccccc2c1)N1CCN(C2CCN(Cc3ccccc3)CC2)CC1`, the figure is 3.5% (inactive); as for `CCOc1ccc(C2=Nn3c(nnc3-c3ccccc3OC)SC2)cc1`, 19.7%. With `COc1ccccc1-c1nnc2n1N=C(c1ccc(O)c(O)c1)CS2`, the inhibition was 23% (inactive).

`CN(C(=O)COc1cc(=O)n(C)c2ccccc12)c1ccc(Br)cc1`: the inhibition is 2.8% (inactive).

In the case of `CCCCOc1ccc(-c2nnn(CC(=O)Nc3ncc(CC(=O)OCC)s3)n2)cc1`, the inhibition was -1.5% (inactive). On the same count and under the same terms, in the case of `Cn1c(=O)c2c(nc(CN3CCOCC3)n2CC(O)CO)n(C)c1=O` (configuration not stated) it was 3.2% (inactive).

Take `Clc1ccc(-c2nnc3sc(-c4ccc(Br)o4)nn23)cc1`: the inhibition was 3.4% (inactive). As for `O=C(COC(=O)c1ccccc1Oc1ccccc1)NC1CCS(=O)(=O)C1` (configuration not stated), the inhibition was -1.2% (inactive). For the molecule `COc1ccc(OC)c(C2C(C#N)=C(N)Oc3cc(C)n(Cc4ccccn4)c(=O)c32)c1` (configuration not stated), the inhibition is 4.2% (inactive). For the molecule `COc1ccc(C(NC(=O)c2ccco2)c2ccc(OC)c(OC)c2)cc1` (configuration not stated), the inhibition is -3.1% (inactive). Same read-out and setting: as for `COc1cc(C2C(C#N)=C(N)Oc3cc(N)ccc32)cc(OC)c1OC` (configuration not stated), the figure is 23.6% (inactive); as for `COc1cc(C(O)c2nc3ccccc3n2C)cc(OC)c1OC` (configuration not stated), -5.7% (inactive). Regarding `COc1ccc(-n2c(Cc3cccn3C)nnc2SCC(=O)Nc2cccc(Cl)c2)cc1`, the inhibition was 3.9% (inactive). `CC1CCCCN1CCNC(=O)c1ccc2c(=O)n(CCc3ccccc3)c(=O)[nH]c2c1` (configuration not stated): the inhibition was 4.4% (inactive). Still for that read-out and setting: as for `CCC1Oc2ccccc2N(CC(=O)Nc2ccc(OC)cc2OC)C1=O` (configuration not stated), the figure is -5% (inactive); as for `CCOC(=O)CCNc1n[nH]c(=O)[nH]c1=O`, 14.4% (inactive). On the same count and under the same terms, in the case of `COC(=O)c1ccc(N2C(=O)CC(N3CCN(C(=O)c4ccco4)CC3)C2=O)cc1` (configuration not stated) it was 11.1% (inactive); in that of `Nc1nc(C(=O)N2CCOCC2)nn1S(=O)(=O)c1ccc(Cl)cc1`, -1.1% (inactive); in that of `Cc1ccccc1CN1CCNC1=O`, -8% (inactive). On the same count and under the same terms, as for `CCOc1ccc(S(=O)(=O)N(C)C)cc1-c1nc2c(C(C)(C)C)nn(C)c2c(=O)[nH]1`, the figure is -7.2% (inactive); as for `Cc1ccc(Cn2ncc3c(N4CCN(Cc5ccc(Cl)cc5)CC4)ncnc32)cc1`, -0.2% (inactive). As for `CC(C)CCNC(=O)NC(=O)CSc1nnc(COc2ccccc2Cl)o1`, the inhibition is -7.1% (inactive).

Regarding `O=C(CN(Cc1ccco1)C(=O)CNS(=O)(=O)c1ccc(Cl)cc1)NCc1ccc(F)cc1`, the inhibition was -0.8% (inactive). For the molecule `CCn1c(C(=O)N2CCCC(C(=O)O)C2)cc2sccc21` (configuration not stated), the inhibition was 1.8% (inactive). The same measure, in the same setting: in the case of `Cc1ccc(-n2c(=O)[nH]c3c(C(N)=O)nc(CC(C)C)nc32)cc1` it was -5.2% (inactive).

With `CC12C(=O)N(CCC(=O)O)C(=O)C1C1C=CC2C1` (configuration not stated), the inhibition was -5.1% (inactive). On to `CC(C)CNS(=O)(=O)c1ccc(CCC(=O)NCc2ccco2)cc1`, for which the inhibition was -5.6% (inactive). For `Cc1cc(C)n(CC2CC(=O)N(c3cc(Cl)cc(Cl)c3)C2=O)n1` (configuration not stated), the inhibition is 6.8% (inactive). As for `O=C(O)c1ccc(COCC(F)(F)C(F)F)o1`, the inhibition is 7.3% (inactive). Same read-out and setting: as for `Cc1nc(NC2=NCN(CCc3ccccc3)CN2)nc2c(C)cccc12`, the figure is 1% (inactive); as for `Cc1csc(SCCn2c(N3CCCC3)nc3c2c(=O)[nH]c(=O)n3C)n1`, -7.5% (inactive); as for `Cc1c(C2Nc3ccccc3NC3=C2C(=O)CC(C)(C)C3)cnn1C` (configuration not stated), 4.8% (inactive).

As to `COc1ccc(S(=O)(=O)N2CCCC2C(=O)Nc2ccc(C)cc2)cc1` (configuration not stated), the inhibition was -0.4% (inactive). Take `COc1ccc2c(c1)[nH]c1c(=O)n(CC3CCCO3)cnc12` (configuration not stated): the inhibition is -2.7% (inactive). The same measure, in the same setting: in the case of `COc1ccccc1CN1CC(C(=O)N2CCN(c3ccc(F)cc3)CC2)CC1=O` (configuration not stated) it was 1.4% (inactive); in that of `O=C(CSc1nnc2ncccn12)N1CCCCCC1`, -3.2% (inactive); in that of `COc1cc([C@@H]2c3cc4c(cc3[C@H](O)[C@H]3COC(=O)[C@H]23)OCO4)cc(OC)c1OC`, 26.3%. For the molecule `Cc1nn(Cc2ccccc2)c(C)c1NC(=O)CCC(=O)O`, the inhibition is -7.5% (inactive).

`O=C(NCCCN1CCCC1=O)C1CCN(S(=O)(=O)N2CCOCC2)CC1`: the inhibition is -10% (inactive). Turning to `O=C(CSc1nnc(SCc2ccc(Cl)cc2)s1)N1CCN(C(=O)c2ccco2)CC1`, the inhibition was 5.9% (inactive). Take `CN1CCN(c2oc(COc3ccc(-c4ccccc4)cc3)nc2C#N)CC1`: the inhibition is 2.4% (inactive).

For `COc1cccc(N2CCN(c3ncnc4c3[nH]c3ccccc34)CC2C)c1` (configuration not stated), the inhibition was 66.1%. Regarding `c1cncc(C2Nc3ccccc3-c3nc4ccccc4n32)c1` (configuration not stated), the inhibition was -5% (inactive). The same measure, in the same setting: in the case of `COC(=O)CCC(NC(=O)c1cc(-c2ccc3c(c2)OCCO3)oc1C)C(=O)OC` (configuration not stated) it was -1.9% (inactive). `COc1ccc(N(C)C(=O)CCS(=O)(=O)c2cccc3nonc23)cc1`: the inhibition was -0.8% (inactive).

On to `CCN1C(=C2C(=O)c3ccccc3C2=O)C=Cc2ccccc21`, for which the inhibition was -5% (inactive). Turning to `CCn1c(CSc2ncccn2)nnc1SCC(=O)N1c2ccccc2CC1C` (configuration not stated), the inhibition was -6.1% (inactive).

As for `Cn1c(C(=O)NCCC2=CCCCC2)cc2c(=O)n3ccccc3nc21`, the inhibition is -8% (inactive).

For the molecule `COc1ccc(OCC(=O)OCCN(C)C)cc1`, the inhibition was 6.8% (inactive). `CC[C@]1(O)CC2CN(CCc3c([nH]c4ccccc34)[C@@](C(=O)OC)(c3cc4c(cc3OC)N(C=O)[C@H]3[C@@](O)(C(=O)OC)[C@H](OC(C)=O)[C@]5(CC)C=CCN6CC[C@]43[C@@H]65)C2)C1` (some centres not stated): the inhibition was 17.2%. Still for that read-out and setting: as for `COC(=O)CCC(=O)Nc1cccc(Cl)c1`, the figure is -0.6% (inactive).

For the next test, the system named is HUVEC TNFa-induced p65 nuclear translocation, imaging. The description is as above.
Conditions: not given
By IC50 is commonly meant the concentration that gives 50% inhibition. For `C=CS(=O)(=O)c1ccc(Oc2ccc(S(=O)(=O)C=C)cc2)cc1`, the IC50 is 1460 nM. The same measure, in the same setting: in the case of `O=S1(=O)Nc2c(ccc3cccnc23)-c2ccccc21` it was 2070 nM; in that of `C[C@H]1CCC/C=C/C2C[C@H](O)CC2[C@H](O)/C=C/C(=O)O1` (some centres not stated), 40 nM.
